From PMC10952593, “Synthetic cannabinoid receptor agonists are monoamine oxidase‐A selective inhibitors” (The Febs Journal, 2023)
Where two headings read alike, the source gives them in different places.

Assays:
Format in all cases: biochemical
MAO-A [1] = target: T1, MAO-A (Homo sapiens, UniProt P21397); experiment: steady-state UV/Vis, 4-hydroxyquinoline at […] nm; details: 20 μM MAO-A as printed, 50 mM HEPES pH 7.5, 0.5% Triton X-100, 25 °C
T1 construct: gene MAOA; FAD enzyme; PDB 2Z5X was only the docking model
T1 sequence (P21397 1-527): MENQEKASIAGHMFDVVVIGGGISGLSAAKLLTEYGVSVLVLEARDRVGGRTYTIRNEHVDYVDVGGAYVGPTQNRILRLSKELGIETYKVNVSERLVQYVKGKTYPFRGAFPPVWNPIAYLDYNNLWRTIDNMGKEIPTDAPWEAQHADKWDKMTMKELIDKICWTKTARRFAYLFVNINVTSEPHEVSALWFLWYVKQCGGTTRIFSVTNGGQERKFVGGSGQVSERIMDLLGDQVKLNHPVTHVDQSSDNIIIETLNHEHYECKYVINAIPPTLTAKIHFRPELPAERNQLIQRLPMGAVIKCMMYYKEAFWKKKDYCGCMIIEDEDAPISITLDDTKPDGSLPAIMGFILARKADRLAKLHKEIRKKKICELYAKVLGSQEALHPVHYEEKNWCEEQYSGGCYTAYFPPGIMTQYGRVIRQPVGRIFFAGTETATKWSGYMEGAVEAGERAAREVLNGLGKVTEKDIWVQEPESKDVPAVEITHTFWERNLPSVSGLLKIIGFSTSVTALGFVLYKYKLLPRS

MAO-B [2] = target: T2, MAO-B (Homo sapiens, UniProt P27338); experiment: UV/Vis, benzaldehyde formation at […] nm; details: 1.5 mM benzylamine, 30 μM MAO-B [sic], 50 mM HEPES pH 7.5, 0.5% Triton X-100, 25 °C; IC50 relative to fitted Imax (Hill-type fit); unreliable
T2 construct: gene MAOB; FAD enzyme; PDB 2V5Z was only the docking model
T2 sequence (P27338 2-520): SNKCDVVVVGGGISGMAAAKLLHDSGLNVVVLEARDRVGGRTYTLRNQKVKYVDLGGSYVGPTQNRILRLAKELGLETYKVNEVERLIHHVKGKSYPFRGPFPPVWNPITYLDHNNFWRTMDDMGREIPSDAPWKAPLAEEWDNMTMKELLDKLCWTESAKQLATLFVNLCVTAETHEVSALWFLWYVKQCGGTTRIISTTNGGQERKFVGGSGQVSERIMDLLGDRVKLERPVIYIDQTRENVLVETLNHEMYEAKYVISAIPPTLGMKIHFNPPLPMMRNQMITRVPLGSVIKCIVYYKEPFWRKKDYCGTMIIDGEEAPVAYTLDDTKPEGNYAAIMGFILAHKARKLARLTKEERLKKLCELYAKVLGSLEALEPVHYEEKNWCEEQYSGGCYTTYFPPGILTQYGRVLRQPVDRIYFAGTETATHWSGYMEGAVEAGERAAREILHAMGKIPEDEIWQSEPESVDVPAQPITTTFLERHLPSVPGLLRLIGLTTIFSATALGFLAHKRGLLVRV

MAO-A [3] = target: T1, MAO-A; experiment: UV/Vis, 4-hydroxyquinoline formation at […] nm
MAO-B [4] = target: T2, MAO-B; experiment: UV/Vis, benzaldehyde formation at […] nm

Compound	IC50 (MAO-B [4]) [µM]	also measured
NCCC(=O)c1ccccc1N [compound 12, kynuramine]	–	Km (MAO-A [1]): 140 ± 30 µM
COC(=O)C(NC(=O)c1cn(CCCCCF)c2ccccc12)C(C)(C)C (stereo not shown) [compound 2, methyl‐2‐[[1‐(5‐fluoropentyl)indole‐3‐carbonyl]amino]‐3,3‐dimethyl‐butanoate]	–	MAO-B / IC50 (MAO-B [2]): 690 ± 420 µM; IC50 (MAO-A [3]): 77.1 ± 1.09 µM
N‐[[1‐(5‐fluoropentyl)‐1H‐indazol‐3‐yl]carbonyl]‐3‐methyl‐D‐valine methyl ester [compound 1]	–	IC50 (MAO-B [4]; 1.5 mM benzylamine, 30 μM MAO-B [sic], 50 mM HEPES pH 7.5, 0.5% Triton X-100, 25 °C, IC50 relative to fitted Imax (Hill-type fit)): 420 ± 190 µM; IC50 (MAO-A [3]; 1 mM kynuramine, 20 μM MAO-A as printed, 50 mM HEPES pH 7.5, 0.5% Triton X-100, 25 °C, IC50 relative to fitted Imax (Hill-type fit)): 87.8 ± 4.38 µM
CCCCCn1ccc2ccccc21 [compound 8, 1‐pentyl‐1H‐Indole]	630 ± 30	–
CCCCCn1ncc2ccccc21 [compound 9, 1‐pentyl‐1H‐Indazole]	540 ± 30	–
Cn1ccc2ccccc21 [compound 10, 1‐methyl‐1H‐Indole]	500 ± 20	–
FCCCCCn1ncc2ccccc21 [compound 7, 1‐(5‐fluoropentyl)‐1H‐Indazole]	620 ± 20	–
FCCCCCn1ccc2ccccc21 [compound 6, 1‐(5‐fluoropentyl)‐1H‐Indole]	650 ± 90	–
